In the supplement of paper PMC11451515:

System: NOMO1
Experiment: cell viability relative to DMSO control; higher = less cytotoxic
Conditions: 48 h
Summary of the method: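 Before seeding, each leukemia line was adapted for at least four passages in each medium. NOMO1 or SEM cells (500 cells/well) and P12-Ichikawa cells (1000 cells/well) went into 1536-well plates at 5 μl, then received library compounds in DMSO by pin dosing across 11 threefold concentrations, 47 μM to 0.79 nM. Readout was CellTiter-Glo One luminescence after 48 h at 37°C, and viability is given as a per-plate percentage of DMSO wells, with cell-free wells as background.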

[1] = HPLM + 10% dialyzed FBS, 0.000781 µM
[2] = HPLM + 10% dialyzed FBS, 0.00234 µM
[3] = HPLM + 10% dialyzed FBS, 0.00702 µM
[4] = HPLM + 10% dialyzed FBS, 0.0211 µM
[5] = HPLM + 10% dialyzed FBS, 0.0632 µM
[6] = HPLM + 10% dialyzed FBS, 0.19 µM
[7] = HPLM + 10% dialyzed FBS, 0.569 µM
[8] = HPLM + 10% dialyzed FBS, 1.71 µM
[9] = HPLM + 10% dialyzed FBS, 5.12 µM
[10] = HPLM + 10% dialyzed FBS, 15.4 µM
[11] = HPLM + 10% dialyzed FBS, 46.1 µM
[12] = RPMI 5 mM glucose + 10% FBS, 0.000781 µM
[13] = RPMI 5 mM glucose + 10% FBS, 0.00234 µM
[14] = RPMI 5 mM glucose + 10% FBS, 0.00702 µM
[15] = RPMI 5 mM glucose + 10% FBS, 0.0211 µM
[16] = RPMI 5 mM glucose + 10% FBS, 0.0632 µM
[17] = RPMI 5 mM glucose + 10% FBS, 0.19 µM
[18] = RPMI 5 mM glucose + 10% FBS, 0.569 µM
[19] = RPMI 5 mM glucose + 10% FBS, 1.71 µM
[20] = RPMI 5 mM glucose + 10% FBS, 5.12 µM
[21] = RPMI 5 mM glucose + 10% FBS, 15.4 µM
[22] = RPMI 5 mM glucose + 10% FBS, 46.1 µM
[23] = RPMI 5 mM glucose + 10% dialyzed FBS, 0.000781 µM
[24] = RPMI 5 mM glucose + 10% dialyzed FBS, 0.00234 µM
[25] = RPMI 5 mM glucose + 10% dialyzed FBS, 0.00702 µM
[26] = RPMI 5 mM glucose + 10% dialyzed FBS, 0.0211 µM
[27] = RPMI 5 mM glucose + 10% dialyzed FBS, 0.0632 µM
[28] = RPMI 5 mM glucose + 10% dialyzed FBS, 0.19 µM
[29] = RPMI 5 mM glucose + 10% dialyzed FBS, 0.569 µM
[30] = RPMI 5 mM glucose + 10% dialyzed FBS, 1.71 µM
[31] = RPMI 5 mM glucose + 10% dialyzed FBS, 5.12 µM
[32] = RPMI 5 mM glucose + 10% dialyzed FBS, 15.4 µM
[33] = RPMI 5 mM glucose + 10% dialyzed FBS, 46.1 µM

| Structure (SMILES) | cell viability [1] [%] | cell viability [2] [%] | cell viability [3] [%] | cell viability [4] [%] | cell viability [5] [%] | cell viability [6] [%] | cell viability [7] [%] | cell viability [8] [%] | cell viability [9] [%] | cell viability [10] [%] | cell viability [11] [%] | cell viability [12] [%] | cell viability [13] [%] | cell viability [14] [%] | cell viability [15] [%] | cell viability [16] [%] | cell viability [17] [%] | cell viability [18] [%] | cell viability [19] [%] | cell viability [20] [%] | cell viability [21] [%] | cell viability [22] [%] | cell viability [23] [%] | cell viability [24] [%] | cell viability [25] [%] | cell viability [26] [%] | cell viability [27] [%] | cell viability [28] [%] | cell viability [29] [%] | cell viability [30] [%] | cell viability [31] [%] | cell viability [32] [%] | cell viability [33] [%] |
| --- | --- | --- | --- | --- | --- | --- | --- | --- | --- | --- | --- | --- | --- | --- | --- | --- | --- | --- | --- | --- | --- | --- | --- | --- | --- | --- | --- | --- | --- | --- | --- | --- | --- |
| C[N+]1(C)[C@@H]2CC(OC(=O)C(O)(c3cccs3)c3cccs3)C[C@H]1[C@@H]1O[C@@H]12 (some centres not stated) | 109 | 113 | 117 | 126 | 107 | 120 | 128 | 113 | 105 | 110 | 102 | 101 | 87.9 | 88.8 | 116 | 102 | 100 | 92.2 | 87.8 | 95.6 | 94.4 | 107 | 90.3 | 105 | 104 | 106 | 115 | 94.9 | 106 | 97.3 | 99.4 | 99 | 99.9 |
| COc1cc2c(Nc3ccc(Cl)c(Cl)c3F)ncnc2cc1OC[C@@H]1C[C@@H]2CN(C)C[C@@H]2C1 | 97.3 | 99 | 106 | 104 | 128 | 127 | 93.3 | 101 | 96.6 | 45.6 | 6.66 | 93.7 | 104 | 115 | 106 | 103 | 115 | 110 | 109 | 111 | 97.8 | 6.22 | 93.4 | 116 | 111 | 112 | 112 | 104 | 107 | 105 | 111 | 92.1 | 4.94 |
| CN1CCN(CCCN2c3ccccc3Sc3ccc(Cl)cc32)CC1.O=C(O)/C=C\C(=O)O.O=C(O)/C=C\C(=O)O | 112 | 123 | 112 | 111 | 124 | 110 | 106 | 47.9 | 42.8 | 29.9 | 32.1 | 97.8 | 106 | 112 | 107 | 109 | 101 | 108 | 81.9 | 58.3 | 24.2 | 28.4 | 94.7 | 104 | 127 | 106 | 117 | 115 | 116 | 68.9 | 73 | 28.3 | 31.9 |
| COC(=O)Nc1nc2ccc([S+]([O-])c3ccccc3)cc2[nH]1 (configuration not stated) | 96.8 | 106 | 119 | 110 | 101 | 119 | 121 | 113 | 101 | 97.9 | 66.7 | – | – | – | – | – | – | – | – | – | – | – | 113 | 123 | 120 | 131 | 136 | 137 | 123 | 134 | 130 | 116 | 94.8 |
| O=C(NCC1CCOCC1)c1cnc(Nc2ccc(Cl)cc2Cl)nc1C(F)(F)F | 101 | 121 | 121 | 114 | 126 | 117 | 122 | 114 | 131 | 141 | 127 | 96.5 | 112 | 116 | 121 | 116 | 117 | 117 | 126 | 127 | 131 | 124 | 109 | 129 | 116 | 122 | 131 | 121 | 122 | 116 | 120 | 134 | 131 |
| COC(=O)[C@H](c1ccccc1Cl)N1CCc2sccc2C1 | 103 | 110 | 127 | 117 | 109 | 104 | 117 | 37.4 | 39.5 | 24.8 | 24.8 | 87.8 | 109 | 89.1 | 92.3 | 103 | 93.7 | 97.4 | 21.7 | 20.9 | 15.9 | 14 | 81 | 90.5 | 101 | 94.4 | 100 | 103 | 102 | 36.6 | 22.8 | 23.6 | 22.2 |
| COc1ccc([S+](=O)([O-])Nc2cccnc2Nc2ccc(O)cc2)cc1 | – | – | – | – | – | – | – | – | – | – | – | 117 | 107 | 116 | 115 | 121 | 101 | 129 | 97.6 | 28.6 | 23.2 | 29.4 | 119 | 113 | 110 | 111 | 114 | 110 | 116 | 114 | 71.5 | 36 | 33.5 |
| C[C@@H](N)C1CC[C@@H](CC1)C(=O)NC2=CC=NC=C2 (some centres not stated) | 98.8 | 114 | 117 | 126 | 123 | 136 | 128 | 132 | 119 | 113 | 100 | 114 | 97.3 | 114 | 106 | 101 | 120 | 122 | 104 | 123 | 93.5 | 93.1 | 113 | 105 | 110 | 91 | 105 | 116 | 115 | 113 | 113 | 94.1 | 90 |
